Experimental data from patent publication US20260356819A1, “OXOISOINDOLINYL-SUBSTITUTED […] DERIVATIVE AND USE THEREOF” (GLUETACS THERAPEUTICS (SHANGHAI) CO., LTD., priority 2023, published 2026).

How the values were obtained:
Format in all cases: cell-based
Details in all cases: compounds at 50 nM and 500 nM
WEE1 = molecular target: T1, WEE1 (Homo sapiens, UniProt P30291+Q96SW2); assay: Western blot degradation of WEE1 in hPBMCs (24 h)
T1 construct: The supernatant was aspirated as the extracted total cell protein; endogenous in cells; host or cells: human peripheral blood mononuclear cells (hPBMCs)
T1 sequence (P30291 whole entry): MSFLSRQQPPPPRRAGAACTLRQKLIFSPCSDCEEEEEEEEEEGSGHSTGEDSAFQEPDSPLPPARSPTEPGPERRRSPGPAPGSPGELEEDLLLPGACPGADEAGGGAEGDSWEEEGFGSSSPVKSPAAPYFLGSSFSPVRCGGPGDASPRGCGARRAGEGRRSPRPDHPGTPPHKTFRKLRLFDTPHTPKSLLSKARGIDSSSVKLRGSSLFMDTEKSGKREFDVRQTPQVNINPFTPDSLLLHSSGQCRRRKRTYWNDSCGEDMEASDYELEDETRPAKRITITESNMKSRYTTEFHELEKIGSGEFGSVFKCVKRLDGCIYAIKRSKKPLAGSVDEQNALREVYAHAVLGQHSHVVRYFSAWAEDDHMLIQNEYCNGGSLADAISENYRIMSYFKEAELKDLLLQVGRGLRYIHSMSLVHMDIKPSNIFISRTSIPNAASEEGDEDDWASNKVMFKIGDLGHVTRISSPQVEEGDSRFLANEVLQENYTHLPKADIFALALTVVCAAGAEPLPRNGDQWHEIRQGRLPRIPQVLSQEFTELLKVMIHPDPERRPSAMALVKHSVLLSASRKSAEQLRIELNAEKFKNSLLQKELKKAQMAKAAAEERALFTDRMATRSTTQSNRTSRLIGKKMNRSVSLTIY
T1 sequence (Q96SW2 whole entry): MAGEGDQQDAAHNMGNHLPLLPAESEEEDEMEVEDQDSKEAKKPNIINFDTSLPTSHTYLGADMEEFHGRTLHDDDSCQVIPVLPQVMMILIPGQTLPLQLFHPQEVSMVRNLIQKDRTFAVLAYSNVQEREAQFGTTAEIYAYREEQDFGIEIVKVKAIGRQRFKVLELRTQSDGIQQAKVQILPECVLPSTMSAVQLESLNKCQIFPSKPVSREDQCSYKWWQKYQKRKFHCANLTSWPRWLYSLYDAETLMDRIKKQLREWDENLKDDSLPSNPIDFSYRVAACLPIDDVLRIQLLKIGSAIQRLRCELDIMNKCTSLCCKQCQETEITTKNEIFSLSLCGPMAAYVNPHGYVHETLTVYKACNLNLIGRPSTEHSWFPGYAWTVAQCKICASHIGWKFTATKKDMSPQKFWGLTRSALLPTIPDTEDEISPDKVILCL
T1 sequence (Q16531 whole entry partner): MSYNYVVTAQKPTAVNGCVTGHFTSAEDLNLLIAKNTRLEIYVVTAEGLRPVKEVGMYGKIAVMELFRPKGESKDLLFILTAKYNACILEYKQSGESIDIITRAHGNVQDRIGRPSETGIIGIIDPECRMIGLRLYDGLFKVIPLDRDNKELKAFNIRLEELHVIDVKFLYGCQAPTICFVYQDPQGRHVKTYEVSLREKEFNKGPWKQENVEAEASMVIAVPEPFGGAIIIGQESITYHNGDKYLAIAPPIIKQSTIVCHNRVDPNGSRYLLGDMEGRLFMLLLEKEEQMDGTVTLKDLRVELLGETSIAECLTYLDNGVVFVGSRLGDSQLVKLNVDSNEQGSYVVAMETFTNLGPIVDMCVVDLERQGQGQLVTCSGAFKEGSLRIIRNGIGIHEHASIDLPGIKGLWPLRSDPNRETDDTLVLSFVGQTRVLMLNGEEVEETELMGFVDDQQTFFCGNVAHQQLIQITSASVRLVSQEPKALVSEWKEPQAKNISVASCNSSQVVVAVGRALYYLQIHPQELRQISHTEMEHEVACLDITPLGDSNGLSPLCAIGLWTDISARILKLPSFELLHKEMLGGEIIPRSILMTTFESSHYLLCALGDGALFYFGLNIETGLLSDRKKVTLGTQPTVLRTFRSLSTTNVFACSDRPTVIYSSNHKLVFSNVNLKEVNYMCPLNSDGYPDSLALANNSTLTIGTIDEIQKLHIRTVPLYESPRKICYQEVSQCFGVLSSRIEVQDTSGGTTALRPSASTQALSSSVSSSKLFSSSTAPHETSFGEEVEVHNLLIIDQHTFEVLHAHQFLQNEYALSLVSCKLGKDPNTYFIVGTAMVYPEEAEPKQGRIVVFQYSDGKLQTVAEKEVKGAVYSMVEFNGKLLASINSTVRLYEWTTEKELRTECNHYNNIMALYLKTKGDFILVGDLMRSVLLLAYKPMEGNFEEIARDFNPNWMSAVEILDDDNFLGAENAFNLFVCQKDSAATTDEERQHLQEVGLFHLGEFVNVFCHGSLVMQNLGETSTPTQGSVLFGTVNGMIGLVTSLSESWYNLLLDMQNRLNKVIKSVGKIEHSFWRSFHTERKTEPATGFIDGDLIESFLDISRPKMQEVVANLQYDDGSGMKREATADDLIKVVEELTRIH
Outline: (§1)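 hPBMCs (1×10^6 cells/mL) were treated with compound at 50 nM and 500 nM for 24 h, lysed in RIPA with protease inhibitors and analysed by SDS-PAGE/Western blot. Band grayscale, normalised to internal control, gave protein remaining (%); DC50 estimated versus DMSO bands.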

IKZF1 = molecular target: T2, IKZF1 (Homo sapiens, UniProt Q13422+Q96SW2); assay: Western blot degradation of IKZF1 in hPBMCs (24 h)
T2 construct: The supernatant was aspirated as the extracted total cell protein; endogenous in cells; host or cells: human peripheral blood mononuclear cells (hPBMCs)
T2 sequence (Q13422 whole entry): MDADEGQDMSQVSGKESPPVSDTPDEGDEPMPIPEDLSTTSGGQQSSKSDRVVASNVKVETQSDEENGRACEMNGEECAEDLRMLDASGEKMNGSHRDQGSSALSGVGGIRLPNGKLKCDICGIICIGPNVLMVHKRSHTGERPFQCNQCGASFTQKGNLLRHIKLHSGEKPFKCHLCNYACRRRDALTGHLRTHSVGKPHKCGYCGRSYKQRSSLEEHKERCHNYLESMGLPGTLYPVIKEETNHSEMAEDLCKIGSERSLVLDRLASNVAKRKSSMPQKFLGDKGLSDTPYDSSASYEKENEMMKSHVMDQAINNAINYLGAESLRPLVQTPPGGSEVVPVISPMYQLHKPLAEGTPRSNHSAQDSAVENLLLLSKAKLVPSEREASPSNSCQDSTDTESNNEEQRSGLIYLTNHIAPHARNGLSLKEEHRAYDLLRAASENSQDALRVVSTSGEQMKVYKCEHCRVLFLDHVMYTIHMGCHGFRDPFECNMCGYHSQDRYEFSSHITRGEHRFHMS
T2 sequence (Q96SW2 whole entry): as the sequence (Q96SW2 whole entry) above
T2 sequence (Q16531 whole entry partner): as the sequence (Q16531 whole entry partner) above
Outline: as §1

IKZF2 = molecular target: T3, IKZF2 (Homo sapiens, UniProt Q96SW2+Q9UKS7); assay: Western blot degradation of IKZF2 in hPBMCs (24 h)
T3 construct: The supernatant was aspirated as the extracted total cell protein; endogenous in cells; host or cells: human peripheral blood mononuclear cells (hPBMCs)
Outline: as §1

IKZF3 = molecular target: T4, IKZF3 (Homo sapiens, UniProt Q96SW2+Q9UKT9); assay: Western blot degradation of IKZF3 in hPBMCs (24 h)
T4 construct: The supernatant was aspirated as the extracted total cell protein; endogenous in cells; host or cells: human peripheral blood mononuclear cells (hPBMCs)
T4 sequence (Q9UKT9 whole entry): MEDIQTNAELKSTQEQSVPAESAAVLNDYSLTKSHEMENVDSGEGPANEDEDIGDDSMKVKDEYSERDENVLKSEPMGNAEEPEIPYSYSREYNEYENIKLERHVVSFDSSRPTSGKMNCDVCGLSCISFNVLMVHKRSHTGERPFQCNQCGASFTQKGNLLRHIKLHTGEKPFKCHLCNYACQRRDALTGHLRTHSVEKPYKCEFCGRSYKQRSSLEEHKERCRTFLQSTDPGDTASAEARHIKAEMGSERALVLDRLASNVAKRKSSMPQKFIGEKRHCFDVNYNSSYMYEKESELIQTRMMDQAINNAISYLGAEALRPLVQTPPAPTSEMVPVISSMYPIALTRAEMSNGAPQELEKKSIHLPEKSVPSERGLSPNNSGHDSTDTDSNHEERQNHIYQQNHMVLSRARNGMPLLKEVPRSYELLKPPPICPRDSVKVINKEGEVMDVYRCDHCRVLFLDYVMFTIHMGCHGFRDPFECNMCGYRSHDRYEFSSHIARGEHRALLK
T4 sequence (Q96SW2 whole entry): as the sequence (Q96SW2 whole entry) above
T4 sequence (Q16531 whole entry partner): as the sequence (Q16531 whole entry partner) above
Outline: as §1

CK1α = molecular target: T5, CK1α (Homo sapiens, UniProt P48729+Q96SW2); assay: Western blot degradation of CK1α in hPBMCs (24 h)
T5 construct: The supernatant was aspirated as the extracted total cell protein; endogenous in cells; host or cells: human peripheral blood mononuclear cells (hPBMCs)
T5 sequence (P48729 whole entry): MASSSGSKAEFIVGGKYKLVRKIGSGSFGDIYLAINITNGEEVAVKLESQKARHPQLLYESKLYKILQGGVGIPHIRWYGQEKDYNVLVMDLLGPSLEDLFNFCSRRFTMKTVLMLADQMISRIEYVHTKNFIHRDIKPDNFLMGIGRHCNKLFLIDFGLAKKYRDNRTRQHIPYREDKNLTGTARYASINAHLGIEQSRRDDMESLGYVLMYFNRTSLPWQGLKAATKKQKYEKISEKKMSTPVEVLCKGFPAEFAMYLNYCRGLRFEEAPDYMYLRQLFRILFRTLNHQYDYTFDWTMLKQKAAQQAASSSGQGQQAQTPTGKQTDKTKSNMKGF
T5 sequence (Q96SW2 whole entry): as the sequence (Q96SW2 whole entry) above
T5 sequence (Q16531 whole entry partner): as the sequence (Q16531 whole entry partner) above
Outline: as §1

GSPT1 = molecular target: T6, GSPT1 (Homo sapiens, UniProt P15170+Q96SW2); assay: Western blot degradation of GSPT1 in hPBMCs (24 h)
T6 construct: The supernatant was aspirated as the extracted total cell protein; endogenous in cells; host or cells: human peripheral blood mononuclear cells (hPBMCs)
T6 sequence (P15170 whole entry): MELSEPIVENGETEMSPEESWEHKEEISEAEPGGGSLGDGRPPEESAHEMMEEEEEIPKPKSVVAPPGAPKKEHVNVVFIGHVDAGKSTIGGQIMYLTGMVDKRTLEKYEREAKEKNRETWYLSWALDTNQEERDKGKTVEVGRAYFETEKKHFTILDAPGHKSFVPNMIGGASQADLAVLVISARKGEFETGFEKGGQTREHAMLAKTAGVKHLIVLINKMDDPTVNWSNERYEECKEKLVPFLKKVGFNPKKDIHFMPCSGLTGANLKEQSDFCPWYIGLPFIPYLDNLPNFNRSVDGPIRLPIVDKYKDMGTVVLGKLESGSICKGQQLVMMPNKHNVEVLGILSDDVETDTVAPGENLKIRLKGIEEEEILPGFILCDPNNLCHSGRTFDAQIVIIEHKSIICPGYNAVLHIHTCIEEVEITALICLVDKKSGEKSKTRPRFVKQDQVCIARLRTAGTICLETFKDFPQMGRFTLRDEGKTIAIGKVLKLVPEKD
T6 sequence (Q96SW2 whole entry): as the sequence (Q96SW2 whole entry) above
T6 sequence (Q16531 whole entry partner): as the sequence (Q16531 whole entry partner) above
Outline: as §1

SMILES | WEE1 substrate protein remaining % (WEE1) | IKZF1 substrate protein remaining % (IKZF1) | IKZF2 substrate protein remaining % (IKZF2) | IKZF3 substrate protein remaining % (IKZF3) | CK1α substrate protein remaining % (CK1α) | GSPT1 substrate protein remaining % (GSPT1)
Cc1sc2ncnc(N3CCCN(Cc4ccc5c(c4)C(=O)N(N4CCC(=O)NC4=O)C5=O)CC3)c2c1C [GT-08095, 5-((4-(5,6-dimethylthieno[2,3-d]pyrimidin-4-yl)-1,4-diazepan-1-yl)methyl)-2-(2,4-dioxotetrahydropyrimidin-1(2H)-yl)isoindoline-1,3-dione] | A (0% ≤ substrate protein remaining % ≤80%) | B (80%< substrate protein remaining % ≤100%) | B (80%< substrate protein remaining % ≤100%) | B (80%< substrate protein remaining % ≤100%) | A (0% ≤ substrate protein remaining % ≤80%) | B (80%< substrate protein remaining % ≤100%)
O=C1CCN(N2C(=O)c3ccc(CN4CCN(c5ncnc6sc(Br)cc56)CC4)cc3C2=O)C(=O)N1 [GT-08096, 5-((4-(6-bromothieno[2,3-d]pyrimidin-4-yl)piperazin-1-yl)methyl)-2-(2,4-dioxotetrahydropyrimidin-1(2H)-yl)isoindoline-1,3-dione] | A (0% ≤ substrate protein remaining % ≤80%) | B (80%< substrate protein remaining % ≤100%) | B (80%< substrate protein remaining % ≤100%) | B (80%< substrate protein remaining % ≤100%) | A (0% ≤ substrate protein remaining % ≤80%) | A (0% ≤ substrate protein remaining % ≤80%)
O=C1CCN(N2C(=O)c3ccc(CN4CCN(c5ncnc6sc(-c7ccccc7)cc56)CC4)cc3C2=O)C(=O)N1 [GT-08097, 2-(2,4-dioxotetrahydropyrimidin-1(2H)-yl)-5-((4-(6-phenylthieno[2,3-d]pyrimidin-4-yl)piperazin-1-yl)methyl)isoindoline-1,3-dione] | A (0% ≤ substrate protein remaining % ≤80%) | B (80%< substrate protein remaining % ≤100%) | B (80%< substrate protein remaining % ≤100%) | B (80%< substrate protein remaining % ≤100%) | A (0% ≤ substrate protein remaining % ≤80%) | A (0% ≤ substrate protein remaining % ≤80%)
O=C1CCN(N2C(=O)c3ccc(CN4CCN(c5ncnc6scc(-c7ccccc7)c56)CC4)cc3C2=O)C(=O)N1 [GT-08098, 2-(2,4-dioxotetrahydropyrimidin-1(2H)-yl)-5-((4-(5-phenylthieno[2,3-d]pyrimidin-4-yl)piperazin-1-yl)methyl)isoindoline-1,3-dione] | B (80%< substrate protein remaining % ≤100%) | B (80%< substrate protein remaining % ≤100%) | B (80%< substrate protein remaining % ≤100%) | B (80%< substrate protein remaining % ≤100%) | B (80%< substrate protein remaining % ≤100%) | A (0% ≤ substrate protein remaining % ≤80%)
